Experimental data reported in patent US20260146035A1, “FUSED BICYCLIC COMPOUNDS AND THEIR USE AS MER AND AXL INHIBITORS” (DONG-A ST CO., LTD., priority 2022, published 2026).

What was measured:
[1] = molecular target: T1, human MER (528-end) (Homo sapiens, UniProt Q12866); experiment: HTRF kinase activity biochemical assay, MER; settings: 10 μM ATP, 30 minutes pre-incubation; read-out: HTRF MERTK IC50
T1 construct: human MER (528-end); purchased Camnabio, Japan
T1 sequence (Q12866 528-999 limits assumed): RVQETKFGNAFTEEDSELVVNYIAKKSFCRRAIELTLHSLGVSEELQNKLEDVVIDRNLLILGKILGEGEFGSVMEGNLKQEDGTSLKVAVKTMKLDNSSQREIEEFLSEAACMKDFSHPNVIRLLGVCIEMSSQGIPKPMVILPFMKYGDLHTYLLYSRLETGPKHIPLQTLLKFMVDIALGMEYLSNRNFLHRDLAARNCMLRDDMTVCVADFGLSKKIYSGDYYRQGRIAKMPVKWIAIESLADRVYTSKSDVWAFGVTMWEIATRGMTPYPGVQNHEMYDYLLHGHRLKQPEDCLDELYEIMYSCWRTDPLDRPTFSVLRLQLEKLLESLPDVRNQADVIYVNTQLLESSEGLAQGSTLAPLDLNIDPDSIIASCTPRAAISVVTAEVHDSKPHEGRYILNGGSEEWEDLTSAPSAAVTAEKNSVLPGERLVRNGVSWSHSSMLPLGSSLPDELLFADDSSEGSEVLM

[2] = molecular target: T2, human AXL (473-end) (Homo sapiens, UniProt P30530); experiment: HTRF kinase activity biochemical assay, AXL; settings: 10 μM ATP, 30 minutes pre-incubation
T2 construct: human AXL (473-end); purchased SignalChem, Canada
T2 sequence (P30530 473-894 limits assumed): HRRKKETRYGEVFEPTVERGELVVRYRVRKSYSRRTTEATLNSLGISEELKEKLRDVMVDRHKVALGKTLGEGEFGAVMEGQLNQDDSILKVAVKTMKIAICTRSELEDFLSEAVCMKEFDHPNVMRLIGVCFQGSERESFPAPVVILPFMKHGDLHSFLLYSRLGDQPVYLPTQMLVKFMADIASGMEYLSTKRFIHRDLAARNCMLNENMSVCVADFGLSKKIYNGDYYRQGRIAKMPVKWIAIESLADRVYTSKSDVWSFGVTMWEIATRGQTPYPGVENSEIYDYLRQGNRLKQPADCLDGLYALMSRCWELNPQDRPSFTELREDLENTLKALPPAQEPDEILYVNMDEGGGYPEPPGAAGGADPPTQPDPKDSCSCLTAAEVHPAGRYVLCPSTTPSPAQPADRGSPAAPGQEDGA

[3] = molecular target: T3, human TYRO3 (455-end) (Homo sapiens, UniProt Q06418); experiment: HTRF kinase activity biochemical assay, TYRO3; settings: 10 μM ATP, 30 minutes pre-incubation; read-out: HTRF TYRO IC50
T3 construct: TYRO3 (455-end); purchased SignalChem, Canada
T3 sequence (Q06418 455-890 limits assumed): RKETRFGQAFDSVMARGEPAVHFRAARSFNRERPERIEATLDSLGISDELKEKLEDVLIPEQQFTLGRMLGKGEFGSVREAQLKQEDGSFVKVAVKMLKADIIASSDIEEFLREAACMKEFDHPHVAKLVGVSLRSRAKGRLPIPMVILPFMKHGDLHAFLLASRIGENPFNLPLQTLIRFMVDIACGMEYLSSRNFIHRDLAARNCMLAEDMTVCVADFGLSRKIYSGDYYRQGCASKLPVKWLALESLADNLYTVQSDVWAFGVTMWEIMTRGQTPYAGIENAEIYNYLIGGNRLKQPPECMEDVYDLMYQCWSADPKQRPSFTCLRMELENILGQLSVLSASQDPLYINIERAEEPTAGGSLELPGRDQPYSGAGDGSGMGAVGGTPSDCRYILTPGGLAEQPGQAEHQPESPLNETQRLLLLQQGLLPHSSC

| IC50 [1] [µM] | IC50 [2] [µM] | IC50 [3] [µM] | SMILES |
| --- | --- | --- | --- |
| < 0.01 | < 0.01 | 0.1 to 1 | Nc1ncc(C(F)(F)F)cc1C(=O)N[C@H]1CCC[C@@H]1OCc1ccc(-c2ccc3c(c2)CC[C@@H]3N2CCN(CCO)CC2)cc1 [Example 131, 2-amino-N-{(1S,2S)-2-[(4-{(1S)-1-[4-(2-hydroxyethyl)piperazin-1-yl]-2,3-dihydro-1H-inden-5-yl}phenyl)methoxy]cyclopentyl}-5-(trifluoromethyl)pyridine-3-carboxamide] |
| < 0.01 | < 0.01 | 0.1 to 1 | Nc1ncc(-c2cncc(F)c2)cc1C(=O)N[C@H]1CCC[C@@H]1OCc1ccc(-c2ccc3c(c2)OCCC3N2CCN(CCO)CC2)cc1 (stereo partly drawn) [Example 132, 6-amino-5′-fluoro-N-{(1S,2S)-2-[(4-{4-[4-(2-hydroxyethyl)piperazin-1-yl]-3,4-dihydro-2H-1-benzopyran-7-yl}phenyl)methoxy]cyclopentyl}[3,3′-bipyridine]-5-carboxamide] |
| < 0.01 | < 0.01 | > 1 | Nc1ncc(C(F)(F)F)cc1C(=O)N[C@H]1CCC[C@@H]1OCc1ccc(-c2ccc3c(c2)OCCC3N2CCN(CCO)CC2)cc1 (stereo partly drawn) [Example 133, 2-amino-N-{(1S,2S)-2-[(4-{4-[4-(2-hydroxyethyl)piperazin-1-yl]-3,4-dihydro-2H-1-benzopyran-7-yl}phenyl)methoxy]cyclopentyl}-5-(trifluoromethyl)pyridine-3-carboxamide] |
| < 0.01 | < 0.01 | 0.1 to 1 | Nc1ncc(-c2cccnc2F)cc1C(=O)N[C@H]1CCC[C@@H]1OCc1ccc(-c2ccc3c(c2)OCCC3N2CCN(CCO)CC2)cc1 (stereo partly drawn) [Example 134, 6-amino-2′-fluoro-N-{(1S,2S)-2-[(4-{4-[4-(2-hydroxyethyl)piperazin-1-yl]-3,4-dihydro-2H-1-benzopyran-7-yl}phenyl)methoxy]cyclopentyl}[3,3′-bipyridine]-5-carboxamide] |
| < 0.01 | < 0.01 | 0.1 to 1 | CC1(C)C[C@@H](N2CCN(CCO)CC2)c2ccc(-c3ccc(CO[C@H]4CCC[C@@H]4NC(=O)c4cc(-c5cccnc5F)cnc4N)cc3)cc21 [Example 135, 6-amino-2′-fluoro-N-{(1S,2S)-2-[(4-{(1R)-1-[4-(2-hydroxyethyl)piperazin-1-yl]-3,3-dimethyl-2,3-dihydro-1H-inden-5-yl}phenyl)methoxy]cyclopentyl}[3,3′-bipyridine]-5-carboxamide] |
| < 0.01 | < 0.01 | 0.1 to 1 | COc1ccnc(N)c1C(=O)N[C@H]1CCC[C@@H]1OCc1ccc(-c2ccc3c(c2)C(C)(C)CC3N2CCN(CCO)CC2)cc1 (stereo partly drawn) [Example 136, 2-amino-N-{(1S,2S)-2-[(4-{1-[4-(2-hydroxyethyl)piperazin-1-yl]-3,3-dimethyl-2,3-dihydro-1H-inden-5-yl}phenyl)methoxy]cyclopentyl}-4-methoxypyridine-3-carboxamide] |
| < 0.01 | < 0.01 | 0.1 to 1 | COc1ccnc(N)c1C(=O)N[C@H]1CCC[C@@H]1OCc1ccc(-c2ccc3c(c2)CC[C@@H]3N2CCN(CCO)CC2)cc1 [Example 137, 2-amino-N-{(1S,2S)-2-[(4-{(1S)-1-[4-(2-hydroxyethyl)piperazin-1-yl]-2,3-dihydro-1H-inden-5-yl}phenyl)methoxy]cyclopentyl}-4-methoxypyridine-3-carboxamide] |
| < 0.01 | < 0.01 | 0.1 to 1 | COc1ccnc(N)c1C(=O)N[C@H]1CCC[C@@H]1OCc1ccc(-c2ccc3c(c2)C(C)(C)CC3N2CCN(C)CC2)cc1 (stereo partly drawn) [Example 138, 2-amino-N-[(1S,2S)-2-({4-[3,3-dimethyl-1-(4-methylpiperazin-1-yl)-2,3-dihydro-1H-inden-5-yl]phenyl}methoxy)cyclopentyl]-4-methoxypyridine-3-carboxamide] |
| < 0.01 | < 0.01 | 0.1 to 1 | COc1ccnc(N)c1C(=O)N[C@H]1CCC[C@@H]1OCc1ccc(-c2ccc3c(c2)CC[C@@H]3N2CCN(C)CC2)cc1 [Example 139, 2-amino-4-methoxy-N-[(1S,2S)-2-({4-[(1S)-1-(4-methylpiperazin-1-yl)-2,3-dihydro-1H-inden-5-yl]phenyl}methoxy)cyclopentyl]pyridine-3-carboxamide] |
| < 0.01 | < 0.01 | 0.1 to 1 | CC1(C)CC(N2CCN(C(CO)CO)CC2)c2ccc(-c3ccc(CO[C@H]4CCC[C@@H]4NC(=O)c4cc(-c5cccnc5F)cnc4N)cc3)cc21 (stereo partly drawn) [Example 140, 6-amino-N-{(1S,2S)-2-[(4-{1-[4-(1,3-dihydroxypropan-2-yl)piperazin-1-yl]-3,3-dimethyl-2,3-dihydro-1H-inden-5-yl}phenyl)methoxy]cyclopentyl}-2′-fluoro[3,3′-bipyridine]-5-carboxamide] |
| < 0.01 | < 0.01 | 0.01 to 0.1 | Cn1cc(-c2cnc(N)c(C(=O)N[C@H]3CCC[C@@H]3OCc3ccc(-c4ccc5c(c4)CCC[C@@H]5N4CCNCC4)cc3)c2)cn1 [Example 141, 2-amino-5-(1-methyl-1H-pyrazol-4-yl)-N-[(1S,2S)-2-({4-[(5S)-5-(piperazin-1-yl)-5,6,7,8-tetrahydronaphthalen-2-yl]phenyl}methoxy)cyclopentyl]pyridine-3-carboxamide] |
| < 0.01 | < 0.01 | 0.1 to 1 | CN1CCN([C@H]2CCc3cc(-c4ccc(CO[C@H]5CCC[C@@H]5NC(=O)c5cc(C(F)(F)F)cnc5N)cc4)ccc32)CC1 [Example 143, 2-amino-N-[(1S,2S)-2-({4-[(1S)-1-(4-methylpiperazin-1-yl)-2,3-dihydro-1H-inden-5-yl]phenyl}methoxy)cyclopentyl]-5-(trifluoromethyl)pyridine-3-carboxamide] |
| 0.01 to 0.1 | 0.01 to 0.1 | > 1 | CN1CCN([C@@H]2CC(C)(C)c3cc(-c4ccc(CO[C@H]5CCC[C@@H]5NC(=O)c5cc(-c6cnn(C)c6)cnc5N)cc4)ccc32)CC1 [Example 145, 2-amino-N-[(1S,2S)-2-({4-[(1R)-3,3-dimethyl-1-(4-methylpiperazin-1-yl)-2,3-dihydro-1H-inden-5-yl]phenyl}methoxy)cyclopentyl]-5-(1-methyl-1H-pyrazol-4-yl)pyridine-3-carboxamide] |
| < 0.01 | < 0.01 | 0.01 to 0.1 | Cn1cc(-c2cnc(N)c(C(=O)N[C@H]3CCC[C@@H]3OCc3ccc(-c4ccc5c(c4)C(C)(C)CCC5N4CCNCC4)cc3)c2)cn1 (stereo partly drawn) [Example 146, 2-amino-N-[(1S,2S)-2-({4-[8,8-dimethyl-5-(piperazin-1-yl)-5,6,7,8-tetrahydronaphthalen-2-yl]phenyl}methoxy)cyclopentyl]-5-(1-methyl-1H-pyrazol-4-yl)pyridine-3-carboxamide] |
| < 0.01 | < 0.01 | 0.01 to 0.1 | CN1CCN(C2CCC(C)(C)c3cc(-c4ccc(CO[C@H]5CCC[C@@H]5NC(=O)c5cc(-c6cnn(C)c6)cnc5N)cc4)ccc32)CC1 (stereo partly drawn) [Example 147, 2-amino-N-[(1S,2S)-2-({4-[8,8-dimethyl-5-(4-methylpiperazin-1-yl)-5,6,7,8-tetrahydronaphthalen-2-yl]phenyl}methoxy)cyclopentyl]-5-(1-methyl-1H-pyrazol-4-yl)pyridine-3-carboxamide] |
| < 0.01 | < 0.01 | 0.01 to 0.1 | Cn1cc(-c2cnc(N)c(C(=O)N[C@H]3CCC[C@@H]3OCc3ccc(-c4ccc5c(c4)C(C)(C)CCC5N4CCN(CCO)CC4)cc3)c2)cn1 (stereo partly drawn) [Example 148, 2-amino-N-{(1S,2S)-2-[(4-{5-[4-(2-hydroxyethyl)piperazin-1-yl]-8,8-dimethyl-5,6,7,8-tetrahydronaphthalen-2-yl}phenyl)methoxy]cyclopentyl}-5-(1-methyl-1H-pyrazol-4-yl)pyridine-3-carboxamide] |
